Assays:
Format in all cases: functional
Mus musculus [1] = assay: In vivo antileukemic activity was determined on L1210 leukemia cell in mice (O.D.=optimal (non-toxic) dose <LD10)
Mus musculus [2] = assay: In vivo antileukemic activity was determined in mice infected with L1210 leukemia cell after intravenous of treated versus untreated mice 10)
Mus musculus [3] = assay: In vivo antileukemic activity was determined in mice infected with L1210 leukemia cell after intravenous administration (T/C=median survival time of treated versus untreated mice 10)

For C=C(Br)C(=O)Nc1cc(C(=O)Nc2cc(C(=O)Nc3cc(C(=O)Nc4cc(C(=O)NCCN=C(N)N)n(C)c4)n(C)c3)n(C)c2)n(C)c1.Cl, the OD (Mus musculus [1]) was 1.56 mg/kg and the T/C (Mus musculus [2]) was 196%.

In the case of C=C(Br)C(=O)Nc1cc(C(=O)Nc2cc(C(=O)Nc3cc(C(=O)Nc4cc(C(=O)NCCC(=N)NC#N)n(C)c4)n(C)c3)n(C)c2)n(C)c1.Cl, the OD (Mus musculus [1]) is reported as 3.13 mg/kg and the T/C (Mus musculus [2]) is reported as 157%.

C=C(Br)C(=O)Nc1cc(C(=O)Nc2cc(C(=O)Nc3cc(C(=O)Nc4cc(C(=O)NCCC#N)n(C)c4)n(C)c3)n(C)c2)n(C)c1.Cl was tested, and the OD (Mus musculus [1]) was 12.5 mg/kg and the T/C (Mus musculus [3]) was 157%.

Compound C=C(Br)C(=O)Nc1cc(C(=O)Nc2cc(C(=O)Nc3cc(C(=O)Nc4cc(C(=O)NCC/C(=N/C)NC)n(C)c4)n(C)c3)n(C)c2)n(C)c1.Cl has an OD (Mus musculus [1]) of 1.56 mg/kg and a T/C (Mus musculus [2]) of 258%.

For C=C(Br)C(=O)Nc1cc(C(=O)Nc2cc(C(=O)Nc3cc(C(=O)Nc4cc(C(=O)NCCC(=N)NC)n(C)c4)n(C)c3)n(C)c2)n(C)c1.Cl, the OD (Mus musculus [1]) was 3.13 mg/kg and the T/C (Mus musculus [2]) was 150%.

C=C(Br)C(=O)Nc1cc(C(=O)Nc2cc(C(=O)Nc3cc(C(=O)Nc4cc(C(=O)NCCC(=N)NO)n(C)c4)n(C)c3)n(C)c2)n(C)c1.Cl was tested, and the OD (Mus musculus [1]) was 6.25 mg/kg and the T/C (Mus musculus [2]) was 186%.

For C=C(Br)C(=O)Nc1cc(C(=O)Nc2cc(C(=O)Nc3cc(C(=O)Nc4cc(C(=O)NCCC(N)=O)n(C)c4)n(C)c3)n(C)c2)n(C)c1.Cl, the OD (Mus musculus [1]) was 6.25 mg/kg and the T/C (Mus musculus [2]) was 169%.
